In patent US20150272959A1, “SMALL MOLECULES AS ANTI-HIV AGENTS THAT DISRUPT VIF SELF-ASSOCIATION AND METHODS OF USE THEREOF” (OYAGEN, INC., priority 2012, published 2015):
Where “and” joins values, the source holds several entries; their conditions need not be identical. Identical values can stand only once. Like-named read-outs stand apart in the source and are kept apart here.

Key:
[1] = system: Vif-dependent A3G degradation; assay: Vif-dependent A3G-mCherry degradation assay in 293T cells; assay type: cell-based; details: single dose 8 μM
Procedure: A3G-mCherry is stably expressed in 293T cells under puromycin selection. 50 ng of Vif was transiently transfected into the cells in 384-well format with Turbofect. 4 hours after transfection the chemistries were added to cells in a range from (0.5-16 μM). 24 hours after chemistries were added the mCherry signal was read on a Biotek Synergy 4 plate reader. The signal from cells plated but not transfected with Vif was averaged and set at 100% (left image), and cells transfected with Vif and treated with DMSO only were averaged and set at 0% (right image). A chemistry that inhibits Vif's ability to chaperone A3G to the proteasomal degradation pathway would result in an increased mCherry signal compared to the DMSO only control, and any signal that is much higher than the no Vif positive control is likely to be due to autofluorescence from the chemistry itself.
To simplify the numbering the compounds were numbered from 1 to 32 in the same order as plated in the original vials and listed on the original Dry Powder list sent with the vials by the Broad. […] The first compound is 02-16, which is the lead from the previous OyaGen screen mentioned above with strong A3G dependency in live virus tests and the last data set are the DMSO controls that were averaged out to set the 0% mark. […]

[2] = system: A3G in the viral particle; assay: A3G in the viral particle, western blot A3G:p24 ratio (FIG. 18); assay type: cell-based, HIV; details: for increase of A3G:p24 ratio over the negative control: parallel to Dry Powder Infectivities B & C, 30 ng p24
Procedure: Parallel to Dry Powder Infectivities B & C, viral particles (30 ng p24) were pelleted through a 20% sucrose cushion, resolved by SDS-PAGE and western blotted for VS-tagged A3G and p24. The yield of A3G relative to p24 (as a virus loading control) was quantified by scanning densitometry to validate the antiviral mechanism. The first two lanes are the −Vif virus with A3G (positive control) and the +Vif virus with A3G (negative control). The A3G:p24 Ratio for the negative control was set to 1 (Ratios listed under the westerns). Chemistry 24 had 5 and 15 fold increases over the negative control. On the other hand, chemistry 9 had increases of 55 and 76-fold over the control, both higher than the positive control at 48-fold above the negative control. However, the positive control has lower overall infectivity and differentials than 9.

[3] = system: pseudotyped HIV; assay type: cell-based; details: for efficacy: all concentrations tested below 15 μM; for toxicity: concentrations higher than 15 μM
Source text: This figure is a visual representation of how the single cycle infectivity experiments were done. They are in 6 well format in order to obtain enough virus to do viral particle purifications for western blot detection of A3G in the viral particle. […] The wild type HIV proviral vector codes for all HIV genes except nef (replaced with EGFP) and env. […] Alternatively, in the absence of A3G, both wild type and ΔVif viruses should have high infectivity.
[…]. Viral load was then normalized with a p24 ELISA (Perkin Elmer).
The infections utilized TZM-bl reporter cells that contain stably integrated luciferase that is driven by the HIV-LTR promoter, therefore luciferase is expressed upon successful HIV infection. Triplicate infections in 96-well plates at 10,000 cells/well with 500 pg p24/well proceeded for 48 hours before the addition of SteadyGlo™ Reagent (Promega) to each well for 30 minutes. Luminescence was measured as a quantitative metric for changes in infectivity with each compound as compared to controls, in which relative luminescence units (RLU) with no chemistry are set to 100%.
This figure is intended to highlight where in the experimental method negative results occurred. Although all compounds to this point in screening have shown little to no toxicity in the Primary and Secondary Screens, when cells are challenged with viral production they are more sensitive to toxicity from chemistries since cells have to combat viral proteins overtaking of cellular pathways and any adverse effects from the chemistries. […] If the producer cells are healthy and make enough virus for infectivity testing there are three possible outcomes and two are undesirable for any chemistry to go forward into probe development. […] This is best represented as a differential between infectivity in the presence of Vif and A3G vs the absence of Vif and A3G.
Each compound was tested at multiple concentrations in separate infectivity assays. The concentrations are listed on the top, followed by the infectivity in relation to the no chemistry control for both + and −Vif and A3G conditions, and the large number on the bottom is the differential between infectivity of +Vif virus and with A3G cotransfected compared to −Vif virus without A3G (purple numbers are for good values and blue numbers are for weak values). […] For compound 9 although the drop in infectivity compared to the no chemistries controls are not as low as for compounds 21 and 24 for +Vif and A3G infectivities, there is an increase in the −Vif and A3G infectivities compared to control making the differential between the +/−Vif and A3G virus lower than 24 and 21 at 0.33 and 0.44 in Dry Powder Infectivities B&C. Note that normalization for the viral load with p24 only accounts for total viral particles in the media, but is unable to discriminate between mature and immature virions. If a chemistry has an effect on % of mature virions compared to the no chemistry control there could be an impact on viral infectivity values compared to control. Therefore, although it is crucial to see lower infectivity than the no chemistry control the more critical number is the differential between +/−Vif and A3G, because both those virial preps contain the chemistry and would have similar effects on the viral populations going into the infectivity assay. On the other hand, compound 21 has +Vif and A3G infectivity at 56% at 15 μM but the −Vif and A3G infectivity is only at 63% making the differential only 0.88.

[4] = system: A3.01 (+A3G) cells; assay type: cell-based
Source text: (§1) All the screens to this point utilized 293T cells and the Brd. […] The rationale is to set a CC50 standard in T cells to measure against for medicinal chemistry derived compounds created from these scaffolds going forward. CEMSS (−A3G) and A3.01 (+A3G) were selected, because they are both CEM derived T cell lines that can be used to compare in live virus spreading infections for A3G-dependency.

[5] = system: CEMSS (-A3G) cells; assay type: cell-based
Source text: as §1

[6] = 15 μM, relative to no chemistry control

Row | SMILES | DMSO stock test [1] | A3G in the viral particles (in words) [2] | increase of A3G:p24 ratio over the negative control [2] | +/-Vif and A3G differential (in words) [3] | -Vif and A3G infectivities compared to control [3] | antiviral activity [3] | differential between +/-Vif and A3G virus infectivity ([3]; Dry Powder Infectivity B) | differential between +/-Vif and A3G virus infectivity ([3]; Dry Powder Infectivity C) | efficacy [3] | toxicity [3] | CC50 [4] | CC50 [5] | differential between +/-Vif and A3G infectivity ([3]; 15 μM) | +Vif and A3G infectivity [3, 6] | -Vif and A3G infectivity [3, 6] | toxic effects ([3]; above 30 μM) | differential between +/-Vif and A3G infectivity ([3]; above 30 μM, Dry Powder infectivity A) | differential between +/-Vif and A3G infectivity ([3]; above 30 μM, Dry Powder infectivity C)
1 | Cc1nnc2ccc(-c3cccc(NS(=O)(=O)c4cc(F)ccc4F)c3)nn12 [Compound 9] | low | increase in A3G | 55 fold and 76 fold | differential between +/−Vif and A3G infectivities | increase | antiviral activity | 0.33 | 0.44 | displayed efficacy | slight toxicity | > 25 µM | > 25 µM | – | – | – | – | – | –
2 | O=C(NC1(C(F)(F)F)Oc2ccc(Cl)cc2O1)N1CCC2(CC1)OCCO2 (stereo not shown) [Compound 21] | – | increase in A3G | 4 fold and 5 fold | differential between +/−Vif and A3G infectivities | – | antiviral activity | – | – | – | – | > 25 µM | > 25 µM | 0.88 | 56% | 63% | no toxic effects | 0.65 | 0.57
3 | FC(F)(F)c1nnc2c3ccccc3c(Cl)nn12 [Compound 24] | – | increase in A3G | – | differential between +/−Vif and A3G infectivities | – | antiviral activity | – | – | displayed efficacy | slight toxicity | 4.9 µM | 9.7 µM | – | – | – | – | – | –
